Test results: PMC10102643, “A mass balance study of [^14C]SHR6390 (dalpiciclib), a selective and potent CDK4/6 inhibitor in humans” (Frontiers in Pharmacology, 2023)

Assay: Quantitative metabolite radioprofiling in pooled plasma, urine and stool (UHPLC-FC / HRMS)
Assay type: in vivo, human
Conditions: pooled 0–168 h stool
Procedure: The plasma sample (15 mL) after pooled was added 15 mL methanol and 15 mL acetonitrile and centrifugation (3,500 rpm, 10 min, 4°C). Extract the centrifuged solid with 7.5 mL water and 22.5 mL methanol acetonitrile (50:50, v: v). The first two extracted supernatants were combined and concentrated. The concentration of the substance is at 200 μL Acetonitrile water (20:80, v: v) was dissolved again and centrifuged again (3,600 rpm, 10 min, 4°C). Part of the supernatant was injected into the UHPLC-FC (Fraction collector) system (Thermo). The eluent from the UHPLC was collected into the Deepwell LumaPlate 96 (PerkinElmer) at the rate of 10 s per well within minutes. The total collection time is 35 min. The plates were dried by Integrated SpeedVac (Thermo), and the radiation value of each well were detected by a microplate reader (Sense Beta Hidex, Finland). Data were reconstructed to radio-chromatogram by Laura software (Lablogic, United Kingdom) to give the radio profiling of plasma.
The combined samples were centrifuged, concentrated by N2 and dissolved in a 200 μL mixture of 40 mL acetonitrile and 160 mL-water, and 120 μL was injected into the UHPLC-FC system (Thermo). Other operation steps are the same as those of plasma.
Add 6 mL methanol acetonitrile (50:50, v: v) to the combined fecal homogenate (2 g) sample. The mixture was then whirled (1 min) and centrifuged6 (3,500 rpm, 10 min, 4°C). […]

Structure (SMILES): CC(=O)c1c(C)c2cnc(Nc3ccc(C(CCN)CCO)cn3)nc2n(C2CCCC2)c1=O (stereo not shown) [M464-2]
- abundance in stool (in words): minor metabolites
